Laboratory results from US6838476B1, “Imidazoles with anti-inflammatory activity” (J. Uriach & Cia, SA, priority 1998, dated 2005).
Structures can show the parent of a compound that is named as a salt.

Key:
cyclooxygenase-2 (COX-2) = molecular target: T1, cyclooxygenase-2 (COX-2) (Homo sapiens, UniProt P35354); experiment: Inhibition of cyclooxygenase-2 (COX-2) activity in human blood (prostaglandin E2 levels after LPS, aspirin added); format: cell-based; settings: for inhibition at 1 µM: read-out: % inhibition COX-2 (1 μM), 1 μM test compound; for inhibition at 10 µM: read-out: % inhibition COX-2 (10 μM), 10 μM test compound
T1 construct: 5 μL of LPS is also added (in order to induce COX-2 activy); from tissue; host or cells: heparinized human whole blood, LPS-stimulated, with aspirin added
T1 sequence (P35354 18-604): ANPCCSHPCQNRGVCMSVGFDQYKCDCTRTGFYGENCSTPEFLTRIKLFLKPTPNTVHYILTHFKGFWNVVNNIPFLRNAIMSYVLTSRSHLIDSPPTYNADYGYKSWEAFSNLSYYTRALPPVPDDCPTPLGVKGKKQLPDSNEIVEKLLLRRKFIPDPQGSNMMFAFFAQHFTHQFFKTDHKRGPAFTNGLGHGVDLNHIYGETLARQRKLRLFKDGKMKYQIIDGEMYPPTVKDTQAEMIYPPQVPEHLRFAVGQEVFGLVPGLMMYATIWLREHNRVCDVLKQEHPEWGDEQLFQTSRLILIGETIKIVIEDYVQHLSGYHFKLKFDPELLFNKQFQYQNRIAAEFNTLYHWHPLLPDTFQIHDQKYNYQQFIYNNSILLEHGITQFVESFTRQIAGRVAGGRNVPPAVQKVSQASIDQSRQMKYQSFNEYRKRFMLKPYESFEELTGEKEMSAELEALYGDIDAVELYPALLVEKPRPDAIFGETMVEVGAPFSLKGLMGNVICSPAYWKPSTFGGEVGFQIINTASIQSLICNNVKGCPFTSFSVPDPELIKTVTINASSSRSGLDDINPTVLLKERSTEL
Procedure: (§1) Inhibition of cyclooxgenase-1 (COX-1) and cyclooxygenase-2 (COX-2) Activity in Human Blood
Blood is divided into two groups; one will be used to determine COX-1 activity and the other one for COX-2. The procedure to follow will be different in each case.
For COX-2, 3-mL tubes are prepared in duplicate containing 5 μL of the test compound (solution in DMSO) and 5 μL of vehicle in the case of blanks and controls. To each tube, 5 μL of a 2 mg/mL solution of aspirin in DMSO is also added (in order to inhibit COX-1 activity), and to all tubes except the blanks 5 μL of LPS is also added (in order to induce COX-2 activy). Finally, 1 mL of heparinized blood is added to each tube, and tubes are then stirred and placed in a thermostatized bath at 37° C. for 24 h. Then, tubes are centrifuged at 2000 g for 10 min at 4° C., the resulting plasma is collected and is frozen at −70° C. until use. COX-2 activity is determined by measuring prostaglandin E2 levels in the samples. The plasma stored at −70° C. is defrozen and prostaglandin E2 levels in these samples are determined using a kit (Kit Prostaglandin E2, Biotrak EIA system RPN222 Amershan), according to the manufacturer's instructions.

cyclooxygenase-1 (COX-1) = molecular target: T2, cyclooxygenase-1 (COX-1) (Homo sapiens, UniProt P23219); experiment: Inhibition of cyclooxygenase-1 (COX-1) activity in human blood (thromboxane B2 levels after ionophore A23187); format: cell-based; settings: read-out: % inhibition COX-1 (10 μM), 10 μM test compound
T2 construct: from tissue; host or cells: heparinized human whole blood
T2 sequence (P23219 24-599): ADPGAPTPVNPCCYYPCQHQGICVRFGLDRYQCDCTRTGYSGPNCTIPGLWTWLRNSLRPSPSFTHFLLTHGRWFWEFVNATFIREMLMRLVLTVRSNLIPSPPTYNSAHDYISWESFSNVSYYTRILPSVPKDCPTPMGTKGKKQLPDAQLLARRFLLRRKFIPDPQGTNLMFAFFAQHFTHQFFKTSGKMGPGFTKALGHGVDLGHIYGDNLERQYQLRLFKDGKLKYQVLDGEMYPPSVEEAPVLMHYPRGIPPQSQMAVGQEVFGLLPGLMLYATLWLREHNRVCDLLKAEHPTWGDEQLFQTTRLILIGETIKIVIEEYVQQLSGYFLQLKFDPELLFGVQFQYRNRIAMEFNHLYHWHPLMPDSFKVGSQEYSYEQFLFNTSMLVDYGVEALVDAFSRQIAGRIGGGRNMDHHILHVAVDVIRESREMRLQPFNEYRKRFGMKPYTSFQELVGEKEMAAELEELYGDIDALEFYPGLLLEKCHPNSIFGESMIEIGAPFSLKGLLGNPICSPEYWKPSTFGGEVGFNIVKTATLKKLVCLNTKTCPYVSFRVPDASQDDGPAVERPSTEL
Procedure: as §1
Heparinized human blood from healthy volunteers who had not taken non-steroidal anti-inflammatory drugs (NSAIDs) for a week, and neither alcohol nor xanthines 24 h before blood collection, is used. Blood is divided into two groups; one will be used to determine COX-1 activity and the other one for COX-2. The procedure to follow will be different in each case.
For COX-1, 12-mL tubes are used. 5 μL of the test compound (in DMSO solution; in duplicate) are placed in each tube. Aditionally two tubes for blanks and two tubes for controls containing 5 μL of DMSO are used. Next, 1 mL of blood is added to each tube and they are stirred. The tubes are placed in a thermostatized bath at 37° C. for 5 h. Then, 5 μL of 5 mM ionophore A23187 is added to each tube, except to the blanks, and tubes are incubated for 30 min more at 37° C. After this time, the tubes are placed in ice and 100 μL of a 100 mM EGTA solution is added to stop the reaction. 2.5 mL of methanol is added to each tube to reach a final concentration of 70%. The tubes are stirred and frozen at −70° C. till their use. The COX-1 activity is determined by measuring thromboxane B2 levels in the samples. Blood is defrozen and centrifuged at 2000 g for 10 min at 4° C. 1 mL of supematant is evaporated under nitrogen to dryness. The solid residue thus obtained is resuspended in 1 mL of saline and the thromboxane B2 levels in these samples are determined using a kit (Kit Thromboxane B2, Biotrak EIA system RPN220 Amershan), according to the manufacturer's instructions.

Cc1ccc(-c2c(Cl)ncn2-c2ccc(S(C)(=O)=O)cc2)cc1F [4(8), 4-Chloro-5-(3-fluoro-4-methylphenyl)-1-(4-methylsulfonylphenyl)-imidazole]
inhibition at 1 µM (cyclooxygenase-2 (COX-2)): 75.1% | inhibition at 10 µM (cyclooxygenase-2 (COX-2)): 100% | inhibition at 10 µM (cyclooxygenase-1 (COX-1)): 47.5%

CS(=O)(=O)c1ccc(-n2cnc(Cl)c2-c2ccc(Cl)nc2)cc1 [4(16), 4-Chloro-5-(6-chloro-3-pyridyl)-1-(4-methylsulfonylphenyl)imidazole]
inhibition at 10 µM (cyclooxygenase-2 (COX-2)): 100% | inhibition at 10 µM (cyclooxygenase-1 (COX-1)): 42.5%

CS(=O)(=O)c1ccc(-n2cncc2-c2ccc(OC(F)(F)F)cc2)cc1 [Example 1(10), 1-(4-Methylsulfonylphenyl)-5-(4-trifluoromethoxyphenyl)imidazole]
melting point: 141 to 142 °C

CS(=O)(=O)c1ccc(-n2cnc(Cl)c2-c2cnc(Cl)c(Cl)c2)cc1 [4(19), 4-Chloro-5-(5,6-dichloro-3-pyridyl)-1-(4-methylsulfonylphenyl)imidazole]
melting point: 223 to 230 °C

CCOc1cc(OCC)cc(-c2cncn2-c2ccc(S(C)(=O)=O)cc2)c1 [Example 1(21), 5-(3,5-Diethoxyphenyl)-1-(4-methylsulfonylphenyl)imidazole]
melting point: 100 to 101 °C

CS(=O)(=O)c1ccc(-n2cnc(Br)c2-c2ccc(F)cc2)cc1 [Example 5, 4-Bromo-5-(4-fluorophenyl)-1-(4-methylsulfonylphenyl)imidazole]
inhibition at 1 µM (cyclooxygenase-2 (COX-2)): 85.2% | inhibition at 10 µM (cyclooxygenase-2 (COX-2)): 100% | inhibition at 10 µM (cyclooxygenase-1 (COX-1)): 33.8%

CS(=O)(=O)c1ccc(-c2cnc(C#N)n2-c2ccc(F)cc2)cc1 [Example 10, 1-(4-Fluorophenyl)-5-(4-methylsulfonylphenyl)imidazol-2-carbonitrile]
inhibition at 1 µM (cyclooxygenase-2 (COX-2)): 74% | inhibition at 10 µM (cyclooxygenase-2 (COX-2)): 100% | inhibition at 10 µM (cyclooxygenase-1 (COX-1)): 52.7%

CS(=O)(=O)c1ccc(-n2cncc2-c2ccccc2F)cc1 [Example 1(9), 5-(2-Fluorophenyl)-1(4-methylsulfonylphenyl)imidazole]
melting point: 188 to 189 °C

CS(=O)(=O)c1ccc(-n2cncc2-c2ccc(Cl)cc2)cc1 [Example 1(15), 5-(4-Chlorophenyl)-1-(4-methylsulfonylphenyl)imidazole]
melting point: 192 to 193 °C

NS(=O)(=O)c1ccc(-n2cncc2-c2ccc(F)cc2)cc1 [Example 14, 4-[5-(4-Fluorophenyl)imidazol-1-yl]benzenesulfonamide]
melting point: 196 to 197 °C

NS(=O)(=O)c1ccc(-n2cnc(Cl)c2-c2ccc(Cl)c(Cl)c2)cc1 [13(2), 4-[4-Chloro-5-(3,4-dichlorophenyl)imidazol-1-yl]benzenesulfonamide]
melting point: 251 °C

CS(=O)(=O)c1ccc(-n2cncc2-c2ccc(F)cc2F)cc1 [Example 1(2), 5-(2,4-Difluorophenyl)-1-(4-methylsulfonylphenyl)imidazole]
melting point: 119 °C

Cc1ccc(-c2c(Cl)ncn2-c2ccc(S(C)(=O)=O)cc2)cn1 [4(11), 4-Chloro-5-(6-methyl-3-pyridyl)-1-(4-methylsulfonylphenyl)imidazole]
inhibition at 1 µM (cyclooxygenase-2 (COX-2)): 58.4% | inhibition at 10 µM (cyclooxygenase-2 (COX-2)): 100% | inhibition at 10 µM (cyclooxygenase-1 (COX-1)): 39.7%

COCc1cccc(-c2c(Cl)ncn2-c2ccc(S(C)(=O)=O)cc2)c1 (as salt: HCl) [4(14), 4-Chloro-5-(3-methoxymethylphenyl)-1-(4-methylsulfonylphenyl)-imidazole]
melting point: 178 °C

Cc1ncn(-c2ccc(S(C)(=O)=O)cc2)c1-c1ccc(F)cc1 [Example 3, 5-(4-Fluorophenyl)-4-methyl-1-(4-methylsulfonylphenyl)imidazole]
inhibition at 10 µM (cyclooxygenase-2 (COX-2)): 86.5% | inhibition at 10 µM (cyclooxygenase-1 (COX-1)): 8.3%

CS(=O)(=O)c1ccc(-n2cncc2-c2ccccc2)cc1 [Example 1(3), 1-(4-Methylsulfonylphenyl)-5-phenylimidazole]
melting point: 164 °C

Cc1ccc(-c2cncn2-c2ccc(S(C)(=O)=O)cc2)cc1F [Example 1(8), 5-(3-Fluoro-4-methylphenyl)-1-(4-methylsulfonylphenyl)imidazole]
melting point: 147 °C

COc1ccc(-c2cncn2-c2ccc(S(C)(=O)=O)cc2)c(Cl)n1 [Example 1(18), 5-(2-Chloro-6-methoxy-3-pyridyl)-1-(4-methylsulfonylphenyl)imidazole]
melting point: 192 to 198 °C

Cc1ccc(-c2c(Cl)ncn2-c2ccc(S(C)(=O)=O)cc2)cc1Cl (as salt: HCl) [4(13), 4-Chloro-5-(3-chloro-4-methylphenyl)-1-(4-methylsulfonylphenyl)-imidazole]
melting point: 181 to 182 °C

Cc1ccc(-c2cncn2-c2ccc(S(C)(=O)=O)cc2)cc1 [Example 1(1), 5-(4-Methylphenyl)-1-(4-methylsulfonylphenyl)imidazole]
melting point: 156 °C

CCCOc1ccc(-c2cncn2-c2ccc(S(C)(=O)=O)cc2)cc1 [Example 1(20), 1-(4-Methylsulfonylphenyl)-5-(4-propoxyphenyl)imidazole]
melting point: 167 to 169 °C

CSc1ccc(-c2cncn2-c2ccc(S(C)(=O)=O)cc2)cc1 [Example 1(24), 5-(4-Methylsulfanylphenyl)-1-(4-methylsulfonylphenyl)imidazole]
melting point: 153 to 155 °C

CS(=O)(=O)c1ccc(-n2cnc(Cl)c2-c2ccc(Cl)c(Cl)c2)cc1 [4(4), 4-Chloro-5-(3,4-dichlorophenyl)-1(4-methylsulfonylphenyl)imidazole]
melting point: 156 to 157 °C

CS(=O)(=O)c1ccc(-c2cnc(Cl)n2-c2ccccc2)cc1 [Example 11, 2-Chloro-5-(4-methylsulfonylphenyl)-1-phenylimidazole]
melting point: 185 to 193 °C

CS(=O)(=O)c1ccc(-n2cncc2-c2ccc(Cl)nc2)cc1 [Example 1(16), 5-(6-Chloro-3-pyridyl)-1-(4-methylsulfonylphenyl)imidazole]
melting point: 191 to 192 °C

COc1cc(-c2cncn2-c2ccc(S(C)(=O)=O)cc2)ccc1C [Example 1(14), 5-(3-Methoxy-4-methylphenyl)-1(4-methylsulfonylphenyl)imidazole]
melting point: 174 to 175 °C

CS(=O)(=O)c1ccc(-n2cnc(Cl)c2-c2ccc(Cl)nc2)cc1 (as salt: HCl) [4(16), 4-Chloro-5-(6-chloro-3-pyridyl)-1-(4-methylsulfonylphenyl)imidazole]
melting point: 223 °C

CC(=O)Nc1ccc(-c2[nH]c(-c3ccc(S(C)(=O)=O)cc3)nc2Cl)cc1 [Example 18, 5-(4-Acetylaminophenyl)-4-chloro-(4-methylsulfonylphenyl)imidazole]
melting point: 238 to 241 °C

CS(=O)(=O)c1ccc(-n2cncc2-c2cnc(Cl)c(Cl)c2)cc1 [Example 1(19), 5-(5,6-Dichloro-3-pyridyl)-1-(4-methylsulfonylphenyl)imidazole]
melting point: 192 to 198 °C

COc1ccc(-c2cncn2-c2ccc(S(C)(=O)=O)cc2)cc1 [Example 1(5), 5-(4-Methoxyphenyl)-1-(4-methylsulfonylphenyl)imidazole]
melting point: 185 to 187 °C
